Test results taken from patent US6235738A, “Diphenyl-substituted heterocycles with 6-membered ring, processes for the preparation thereof and the use thereof as medicaments” (Boehringer Ingelheim Pharma KG, priority 1998, dated 2001).

How the values were obtained:
AMPA receptor = experiment: Inhibition of the signal induced by kainate on AMPA receptor (electrophysiology on neuronal cells, Patch-Clamp method); assay type: cell-based; conditions: concentration not given
Procedure: The effected on AMPA receptor was tested by electrophysiology on neuronal cells (Patch-Clamp method) (M. L. Mayer, L. Vyklicky and G. L. Westbrook, J. Physiol. 415(1989) 329-350).
Inhibition of the signal induced by kainate on AMPA receptor

[1] = molecular target: Na^+ canal site 2 binding site; experiment: Affinity for the "Na^+ canal site 2" binding site; conditions: tests typically at a test concentration of 10 μM
Procedure: The test of affinity for the "Na^+ canal site 2" binding site was carried out as described by G. B. Brown (J. Neurosci. 6 (1986) 2064). Tests were carried out typically at a test concentration of 10 μM.

SMILES: CN(C)CCOc1ccccc1-c1ccnc(-c2ccccc2)n1 [Example 4, 4-{2-[2-(N,N-Dimethylamino)ethyl]oxy-phenyl}-2-phenyl-pyrimidine]
- AMPA Inh. (AMPA receptor): 96%
- Ki [1]: 4000 nM

SMILES: CN(C)CCOc1ccccc1-c1ncnc(-c2ccccc2)n1 [Example 6, 2-{2-[2-(N,N-Dimethylamino)ethyl]oxy-phenyl}-4-phenyl-1,3,5-triazine]
- AMPA Inh. (AMPA receptor): 66%
- Ki [1]: 2800 nM

SMILES: CN(C)CCOc1ccccc1-c1cnnc(-c2ccccc2)n1 [Example 7, 5-{2-[2-(N,N-Dimethylamino)ethyl]oxy-phenyl}-3-phenyl-1,2,4-triazine]
- AMPA Inh. (AMPA receptor): 98%
- Ki [1]: 2400 nM

SMILES: CN(C)CCOc1ccccc1-c1nncc(-c2ccccc2)n1 [Example 8, 3-{2-[2-(N,N-Dimethylamino)ethyl]oxy-phenyl}-5-phenyl-1,2,4-triazine]
- AMPA Inh. (AMPA receptor): 95%
